Source: patent US4490370A, “Naphthylglycyl cephalosporin derivatives” (priority 1983, dated 1984)
In brackets after ≈: the same amount, converted by molar mass. Read-outs that look alike come from different tables or passages of the source.

Experiments:
P. magnus = assay: Susceptibility of anaerobic cocci, agar-dilution, 24 hour MIC; assay type: cell-based; conditions: Finegoldia magna
Source text: (§1) A typical and preferred compound provided by this invention is 7-(2-naphthylglycylamido)-3-methyl-3-cephem-4-carboxylic acid, the compound of Example 3. The antibacterial activity of this compound and several others of the invention has been determined in standard in vitro agar dilution assays against a variety of gram positive microorganisms. The following Tables present typical minimum inhibitory concentrations (MIC's) in μg/ml for the compounds when evaluated against the indicated microorganisms. MIC's for several known compounds are also presented for comparison.
(§2) Susceptibility of Anaerobic Cocci
(§3) Isolates by the Agar-Dilution
(§4) Method-24 hour MIC's (μg/ml)

P. prevoti = assay: as above; assay type: cell-based; conditions: isolate 1293
Source text: as §1, §2, §3, §4

[1] = system: Peptococcus Asaccharolyticus; assay: as above; assay type: cell-based; conditions: Peptoniphilus asaccharolyticus, isolate 1344
Source text: as §1, §2, §3, §4

Peptococcus Constellatus = assay: as above; assay type: cell-based; conditions: Streptococcus constellatus, isolate 1468
Source text: as §1, §2, §3, §4

[2] = system: Peptostreptococcus anaerobius; assay: as above; assay type: cell-based
Source text: as §1, §2, §3, §4

[3] = system: Peptostreptococcus intermedius; assay: as above; assay type: cell-based
Source text: as §1, §2, §3, §4

Bacteroides fragilis = assay: Susceptibility of anaerobes, agar-dilution, 24 hour MIC; assay type: cell-based
Propionibacterum acnes = assay: as above; assay type: cell-based
Source text: as §1, §2, §3, §4

Staph. aureus = assay: Agar dilution MIC, Staph. aureus; assay type: cell-based; conditions: Staphylococcus aureus, Table III, read-out: MIC
Source text: (§5) The following Tables present typical minimum inhibitory concentrations (MIC's) in μg/ml for the compounds when evaluated against the indicated microorganisms.

H. influ. = assay: Agar dilution MIC, H. influenza; assay type: cell-based; conditions: Table III, read-out: MIC
Source text: as §5

B. Fragilis = assay: Expanded spectrum MIC, B. Fragilis; assay type: cell-based; conditions: Bacteroides fragilis, Table III
Source text: as §1

[4] = system: β-lactamase (organism 265A); assay: Stability to β-lactamases, 265A; assay type: biochemical; conditions: lower numbers mean greater stability
[5] = system: β-lactamase (organism PS185); assay: Stability to β-lactamases, PS185; assay type: biochemical; conditions: lower numbers mean greater stability
β-lactamase (TEM) = assay: Stability to β-lactamases, TEM; assay type: biochemical; conditions: lower numbers mean greater stability
[6] = system: β-lactamase (organism 1082E); assay: Stability to β-lactamases, 1082E; assay type: biochemical; conditions: lower numbers mean greater stability
[7] = system: β-lactamase (organism 1313G); assay: Stability to β-lactamases, 1313G; assay type: biochemical; conditions: lower numbers mean greater stability

In the case of `CO[C@@]1(NC(=O)Cc2cccs2)C(=O)N2C(C(=O)O)=C(COC(N)=O)CS[C@@H]21` [Cefoxitin, reference compound], the MIC (P. magnus; isolate 1401) is reported as 2 µg/mL (≈ 4.68 µM), the MIC (P. magnus; isolate 1477) is reported as 0.5 µg/mL (≈ 1.17 µM) and the MIC (P. prevoti) is reported as 1 µg/mL (≈ 2.34 µM). The MIC [1] was 0.25 µg/mL (≈ 0.585 µM), the MIC (Peptococcus Constellatus) was 8 µg/mL (≈ 18.7 µM) and the MIC ([2]; isolate 8) was 0.25 µg/mL (≈ 0.585 µM). The MIC ([2]; isolate 52) was 2 µg/mL (≈ 4.68 µM), the MIC ([2]; isolate 1477) was 1 µg/mL (≈ 2.34 µM) and the MIC ([3]; isolate 1264) was 1 µg/mL (≈ 2.34 µM). It also gave an MIC ([3]; isolate 1524) of 4 µg/mL (≈ 9.36 µM), an MIC ([3]; isolate 1624) of 4 µg/mL (≈ 9.36 µM) and an MIC (Bacteroides fragilis; isolate 200) of 8 µg/mL (≈ 18.7 µM). For the same compound, the MIC (Bacteroides fragilis; isolate 206) was 16 µg/mL (≈ 37.4 µM), the MIC (Bacteroides fragilis; isolate 3625) was 16 µg/mL (≈ 37.4 µM) and the MIC (Bacteroides fragilis; isolate 7371A) was 8 µg/mL (≈ 18.7 µM). It also gave an MIC (Bacteroides fragilis; isolate 19671) of 16 µg/mL (≈ 37.4 µM), an MIC (Bacteroides fragilis; isolate 19681) of 32 µg/mL (≈ 74.9 µM) and an MIC (Propionibacterum acnes; isolate 44) of 2 µg/mL (≈ 4.68 µM). The MIC (Propionibacterum acnes; isolate 79) was 8 µg/mL (≈ 18.7 µM), the MIC (Propionibacterum acnes; isolate 101) was 4 µg/mL (≈ 9.36 µM) and the MIC (Propionibacterum acnes; isolate 104) was 4 µg/mL (≈ 9.36 µM). For the same compound, the MIC (Propionibacterum acnes; isolate 105) was 2 µg/mL (≈ 4.68 µM), the MIC (Propionibacterum acnes; isolate 5191) was no more than 0.06 µg/mL and the MIC (Propionibacterum acnes; isolate 5227) was 2 µg/mL (≈ 4.68 µM). It also gave an MIC (Propionibacterum acnes; isolate 5228) of 4 µg/mL (≈ 9.36 µM), an MIC (Propionibacterum acnes; isolate 5229) of 2 µg/mL (≈ 4.68 µM) and an MIC (Propionibacterum acnes; isolate 5246) of 4 µg/mL (≈ 9.36 µM).
Work on `N[C@@H](C(=O)N[C@@H]1C(=O)N2C(C(=O)O)=C(Cl)CS[C@H]12)c1ccccc1` [Cefaclor, 7-phenylglycylamido-3-chloro-3-cephem-4-carboxylic acid, reference compound] yielded an MIC (Staph. aureus; strain 8438) of 1 µg/mL (≈ 2.72 µM), an MIC (Staph. aureus; strain 9050) of 2 µg/mL (≈ 5.44 µM) and an MIC (Staph. aureus; strain 9136) of 2 µg/mL (≈ 5.44 µM). For the same compound, the MIC (Staph. aureus; strain 9290) was 8 µg/mL (≈ 21.8 µM), the MIC (Staph. aureus; strain 9767) was 2 µg/mL (≈ 5.44 µM) and the MIC (H. influ.; strain 101) was 2 µg/mL (≈ 5.44 µM). The MIC (H. influ.; strain 102) was 16 µg/mL (≈ 43.5 µM), the MIC (H. influ.; strain 103) was 2 µg/mL (≈ 5.44 µM) and the MIC (H. influ.; strain 104) was 1 µg/mL (≈ 2.72 µM). The MIC (H. influ.; strain 105) was 1 µg/mL (≈ 2.72 µM), the MIC (H. influ.; strain 106) was 2 µg/mL (≈ 5.44 µM) and the MIC (H. influ.; strain 107) was 2 µg/mL (≈ 5.44 µM). The MIC (H. influ.; strain 108) was 1 µg/mL (≈ 2.72 µM), the MIC (H. influ.; strain 109) was 2 µg/mL (≈ 5.44 µM) and the MIC (H. influ.; strain 110) was 1 µg/mL (≈ 2.72 µM). It also gave an MIC (H. influ.; strain 111) of 1 µg/mL (≈ 2.72 µM), an MIC (B. Fragilis; strain 180-821) of 64 µg/mL (≈ 174 µM) and an MIC (B. Fragilis; strain 10668) of 64 µg/mL (≈ 174 µM). The MIC (B. Fragilis; strain 10683) was 16 µg/mL (≈ 43.5 µM), the MIC (B. Fragilis; strain 10695) was 32 µg/mL (≈ 87 µM) and the MIC (B. Fragilis; strain 10750) was greater than 64 µg/mL. The MIC (B. Fragilis; strain 10774) was greater than 64 µg/mL, the MIC (B. Fragilis; strain 10817) was 64 µg/mL (≈ 174 µM) and the MIC (B. Fragilis; strain 10837) was greater than 64 µg/mL. The MIC (B. Fragilis; strain 107266) was 16 µg/mL (≈ 43.5 µM), the MIC (B. Fragilis; strain 107268) was 16 µg/mL (≈ 43.5 µM) and the “Stability to β-lactamases” value [4] was 138. For the same compound, the “Stability to β-lactamases” value [5] was 71, the “Stability to β-lactamases” value (β-lactamase (TEM)) was 23 and the “Stability to β-lactamases” value [6] was 65. For the same compound, the “Stability to β-lactamases” value [7] was 4605.
